In paper PMC8119466, “A screen of FDA-approved drugs identifies inhibitors of protein tyrosine phosphatase 4A3 (PTP4A3 or PRL-3)” (Scientific Reports, 2021):
Structures can show the parent of a compound that is named as a salt. Where two headings read alike, the source gives them in different places. Starred links: 1 amine or outer side, 2 acyl side, 3 side chain; linkers in the order of their positions; H or OH if unused. Positions of bridges follow the written chain, without caps; N, C: chain ends. Non-standard residues stand in square brackets, D forms with d. Residues, ends and D or L forms follow the SMILES beside them. *: point of attachment. hTyr(3S-OH,4S-OH,3'-OSO3H) = N[C@H](C(=O)O)[C@H](O)[C@@H](O)c1ccc(O)c(OS(=O)(=O)O)c1; Orn(4R-OH,5R-OH) = O=C([C@H](C[C@@H](O)[C@@H](O)N[*:3])N[*:1])[*:2]; Pro(3S-OH,4S-Me) = C[C@H]1CN[C@H](C(=O)O)[C@H]1O; X1 = CCCCCOc1ccc(-c2cc(-c3ccc(C(=O)*)cc3)no2)cc1; Gln(3R-OH) = NC(=O)C[C@@H](O)[C@H](N)C(=O)O; Hyp = O=C(O)[C@@H]1C[C@@H](O)CN1

Assays:
Type in all cases: biochemical
recombinant PRL-1 = biological target: T1, recombinant PRL-1 (Homo sapiens, UniProt Q93096); experiment: In vitro phosphatase assay (DiFMUP hydrolysis), PRL-1; also: test concentration or dose not given here
T1 construct: 6xHis (N, cleaved yes); made in house; host or cells: E. coli One Shot BL21 Star
T1 sequence (Q93096 1-173): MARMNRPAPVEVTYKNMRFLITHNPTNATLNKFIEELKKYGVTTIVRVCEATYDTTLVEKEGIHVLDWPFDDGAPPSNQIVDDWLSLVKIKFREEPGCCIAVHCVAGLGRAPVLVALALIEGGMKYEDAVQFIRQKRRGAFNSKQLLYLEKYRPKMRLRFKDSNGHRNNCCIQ

recombinant PRL-2 = biological target: T2, recombinant PRL-2 (Homo sapiens, UniProt Q12974); experiment: In vitro phosphatase assay (DiFMUP hydrolysis), PRL-2;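 also: PRL-2 activity read as DiFMUP hydrolysis after 20 min at room temperature with drug, enzyme first pre-reduced at 4 °C for 20 min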
T2 construct: 6xHis (N, cleaved yes); made in house; host or cells: E. coli One Shot BL21 Star
T2 sequence (Q12974 1-167): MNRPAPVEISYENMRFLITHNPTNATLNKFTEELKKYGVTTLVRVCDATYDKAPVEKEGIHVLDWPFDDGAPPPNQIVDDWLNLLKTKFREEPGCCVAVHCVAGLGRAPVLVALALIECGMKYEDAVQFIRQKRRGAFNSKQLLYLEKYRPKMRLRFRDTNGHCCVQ

recombinant PRL-3 = biological target: T3, recombinant PRL-3 (Homo sapiens, UniProt O75365); experiment: In vitro phosphatase assay (DiFMUP hydrolysis), PRL-3; also: test concentration or dose not given here
T3 construct: 6xHis (N, cleaved yes); made in house; host or cells: E. coli One Shot BL21 Star

[1] = FDA-approved drug screen, compared to DMSO

T3 sequence (O75365 whole entry): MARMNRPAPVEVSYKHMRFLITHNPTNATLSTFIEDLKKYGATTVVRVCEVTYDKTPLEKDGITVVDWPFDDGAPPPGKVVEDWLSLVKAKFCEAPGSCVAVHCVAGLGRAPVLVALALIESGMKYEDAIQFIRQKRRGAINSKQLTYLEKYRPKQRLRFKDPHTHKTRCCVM

| SMILES | % Phosphatase Activity (compared to DMSO) PRL-1 (recombinant PRL-1; [1]) [%] | % Phosphatase Activity (compared to DMSO) PRL-2 (recombinant PRL-2; [1]) [%] | % Phosphatase Activity (compared to DMSO) PRL-3 (recombinant PRL-3; [1]) [%] | % Phosphatase Activity (compared to DMSO) PRL-1 (recombinant PRL-1) [%] | % Phosphatase Activity (compared to DMSO) PRL-2 (recombinant PRL-2) [%] | % Phosphatase Activity (compared to DMSO) PRL-3 (recombinant PRL-3) [%] |
| --- | --- | --- | --- | --- | --- | --- |
| C[C@H]1C[C@H]2[C@@H]3CCC4=CC(=O)C=C[C@]4(C)[C@H]3C(=O)C[C@]2(C)[C@@]1(O)C(=O)CO [Meprednisone] | 99 | 97 | 78 |  |  |  |
| CCC1(c2cccc(O)c2)CCCCN(C)C1 (stereo not drawn) [Meptazinol HCl] | 106 | 124 | 84 |  |  |  |
| COc1ccc(O)cc1 [Mequinol] | 104 | 120 | 85 |  |  |  |
| S=c1nc[nH]c2nc[nH]c12 [Mercaptopurine (6-MP)] | 93 | 76 | 74 |  |  |  |
| C[C@@H](O)[C@H]1C(=O)N2C(C(=O)O)=C(S[C@@H]3CN[C@H](C(=O)N(C)C)C3)[C@H](C)[C@H]12 [Meropenem] | 104 | 109 | 57 |  |  |  |
| Nc1ccc(O)c(C(=O)O)c1 [Mesalamine] | 112 | 131 | 82 |  |  |  |
| O=S(=O)(O)CCS [Mesna] | 95 | 93 | 102 |  |  |  |
| CN1CCCCC1CCN1c2ccccc2Sc2ccc([S+](C)[O-])cc21 (stereo not drawn) [Mesoridazine Besylate] |  |  |  | 98 | 95 | 99 |
| CC(C)NCC(O)c1cc(O)cc(O)c1 (stereo not drawn) [Metaproterenol Sulfate] | 98 | 112 | 95 |  |  |  |
| C[C@H](N)[C@H](O)c1cccc(O)c1 [Metaraminol Bitartrate] | 112 | 106 | 94 |  |  |  |
| CN(C)C(=N)N=C(N)N [Metformin HCl] | 102 | 78 | 87 |  |  |  |
| C=C1c2cccc(O)c2C(=O)C2=C(O)[C@]3(O)C(=O)C(C(N)=O)=C(O)[C@@H](N(C)C)[C@@H]3[C@@H](O)[C@H]12 [Methacycline HCl] | 82 | 65 | 83 |  |  |  |
| CC(=O)/N=c1/sc(S(N)(=O)=O)nn1C [Methazolamide] | 110 | 114 | 88 |  |  |  |
| C1N2CN3CN1CN(C2)C3 [Methenamine] | 112 | 109 | 87 |  |  |  |
| Cn1cc[nH]c1=S [Methimazole] | 104 | 97 | 82 |  |  |  |
| COc1ccccc1OCC(O)COC(N)=O (stereo not drawn) [Methocarbamol] | 92 | 91 | 100 |  |  |  |
| CN(Cc1cnc2nc(N)nc(N)c2n1)c1ccc(C(=O)N[C@@H](CCC(=O)O)C(=O)O)cc1 [Methotrexate] | 92 | 83 | 70 |  |  |  |
| COc1c2occc2cc2ccc(=O)oc12 [Methoxsalen] | 81 | 99 | 78 |  |  |  |
| C[N+]1(C)[C@@H]2C[C@@H](OC(=O)[C@H](CO)c3ccccc3)C[C@H]1[C@@H]1O[C@@H]12 [Methscopolamine] | 86 | 107 | 88 |  |  |  |
| CN1C(CCl)Nc2cc(Cl)c(S(N)(=O)=O)cc2S1(=O)=O (stereo not drawn) [Methyclothiazide] | 100 | 114 | 62 |  |  |  |
| C[C@](N)(Cc1ccc(O)c(O)c1)C(=O)O [Methyldopa] | 98 | 95 | 70 |  |  |  |

| SMILES | % Phosphatase Activity (compared to DMSO) PRL-1 (recombinant PRL-1; [1]) [%] | % Phosphatase Activity (compared to DMSO) PRL-2 (recombinant PRL-2; [1]) [%] | % Phosphatase Activity (compared to DMSO) PRL-3 (recombinant PRL-3; [1]) [%] | % Phosphatase Activity (compared to DMSO) PRL-1 (recombinant PRL-1) [%] | % Phosphatase Activity (compared to DMSO) PRL-2 (recombinant PRL-2) [%] | % Phosphatase Activity (compared to DMSO) PRL-3 (recombinant PRL-3) [%] |
| --- | --- | --- | --- | --- | --- | --- |
| CN(C)c1ccc2nc3ccc(=[N+](C)C)cc-3sc2c1 [Methylene Blue] | 55 | 72 | 45 |  |  |  |
| C[C@H]1C[C@@H]2[C@H]([C@@H](O)C[C@@]3(C)[C@H]2CC[C@]3(O)C(=O)CO)[C@@]2(C)C=CC(=O)C=C12 [Methylprednisolone] | 90 | 95 | 92 |  |  |  |
| Cc1cc(=O)[nH]c(=S)[nH]1 [Methylthiouracil] | 110 | 93 | 75 |  |  |  |
| Cc1cc2c(cc1S(N)(=O)=O)S(=O)(=O)CCC2 [Meticrane] | 104 | 94 | 83 |  |  |  |
| CCN(CC)CCNC(=O)c1cc(Cl)c(N)cc1OC.Cl [MetoclopraMide HCl] | 97 | 84 | 75 |  |  |  |
| Cc1ccccc1N1C(=O)c2cc(S(N)(=O)=O)c(Cl)cc2NC1C (stereo not drawn) [Metolazone] | 144 | 163 | 121 |  |  |  |
| COCCc1ccc(OCC(O)CNC(C)C)cc1 (stereo not drawn) [Metoprolol Tartrate] | 89 | 109 | 98 |  |  |  |
| Cc1ncc([N+](=O)[O-])n1CCO [Metronidazole] | 89 | 92 | 87 |  |  |  |
| CC[C@H](C)C(=O)O[C@H]1CCC=C2C=C[C@H](C)[C@H](CC[C@@H]3C[C@@H](O)CC(=O)O3)[C@H]21 [Mevastatin] | 88 | 89 | 71 |  |  |  |
| Cc1cccc(C)c1OCC(C)N (stereo not drawn) [Mexiletine HCl] |  |  |  | 98 | 106 | 78 |
| CC1(C)S[C@@H]2[C@H](NC(=O)[C@H](NC(=O)N3CCN(S(C)(=O)=O)C3=O)c3ccccc3)C(=O)N2[C@H]1C(=O)O [Mezlocillin Sodium] | 92 | 91 | 67 |  |  |  |
| CN1CCN2c3ccccc3Cc3ccccc3C2C1 (stereo not drawn) [Mianserin HCl] | 95 | 99 | 59 |  |  |  |
| CCCCCOc1ccc(-c2cc(-c3ccc(C(=O)N[C@H]4C[C@@H](O)[C@@H](O)NC(=O)[C@@H]5[C@@H](O)[C@@H](C)CN5C(=O)[C@H]([C@H](O)CC(N)=O)NC(=O)[C@H]([C@H](O)[C@@H](O)c5ccc(O)c(OS(=O)(=O)[O-])c5)NC(=O)[C@@H]5C[C@@H](O)CN5C(=O)[C@H]([C@@H](C)O)NC4=O)cc3)no2)cc1.[Na+] [Micafungin Sodium] (X1-[Orn(4R-OH,5R-OH)]T[Hyp][hTyr(3S-OH,4S-OH,3'-OSO3H)][Gln(3R-OH)][Pro(3S-OH,4S-Me)]; lactam 1-C) | 74 | 90 | 49 |  |  |  |
| Clc1ccc(COC(Cn2ccnc2)c2ccc(Cl)cc2Cl)c(Cl)c1 (stereo not drawn) [Miconazole Nitrate] | 98 | 93 | 92 |  |  |  |
| Clc1ccc(COC(Cn2ccnc2)c2ccc(Cl)cc2Cl)c(Cl)c1 (stereo not drawn) [Miconazole] | 109 | 101 | 86 |  |  |  |
| CC#C[C@]1(O)CC[C@H]2[C@@H]3CCC4=CC(=O)CCC4=C3[C@@H](c3ccc(N(C)C)cc3)C[C@@]21C [Mifepristone] | 96 | 135 | 95 |  |  |  |
| OCCN1C[C@H](O)[C@@H](O)[C@H](O)[C@H]1CO [Miglitol] | 114 | 120 | 88 |  |  |  |
| CCN(CC)C(=O)C1(c2ccccc2)CC1CN.Cl (stereo not drawn) [Milnacipran HCl] | 114 | 107 | 80 |  |  |  |
| Cc1[nH]c(=O)c(C#N)cc1-c1ccncc1 [Milrinone] | 98 | 110 | 83 |  |  |  |
| CCCCCCCCCCCCCCCCOP(=O)([O-])OCC[N+](C)(C)C [Miltefosine] | 92 | 94 | 122 |  |  |  |
